Test results as given in patent publication US7511047B2, “Kinase inhibitors” (Cytopia Research Pty Ltd, priority 2002, dated 2009).

Columns and labels:
Assay type in all cases: biochemical
[1] = biological target: hck (Homo sapiens, UniProt P08631); assay: hck kinase assay (ELISA or Alphascreen); conditions: capacity to inhibit 50% of activity at 50 μM; read-out: hck inhibitory activity
Experimental: (§1) For screening purposes, compounds were diluted in 96 well plates at a concentration of 20 μM. Plates were warmed at 37° C. for 30 minutes before assay.
(§2) Kinase assays were performed either in a 96 well capture-based ELISA assay or in 384 well Optiplates (Packard) using an Alphascreen Protein Tyrosine Kinase kit. In either casse using approximately 1.5 μg of affinity purified PTK domain in the presence of 50 mM HEPES, pH 7.5, 10 mM MgCl2, 150 mM NaCl and 10 μM-1 mM ATP. The biotinylated substrate biotin-EGPWLEEEEEAYGWMDF-NH2 (SEQ ID NO:9) (final concentration 5 μM) was used as substrate. In the ELISA assay tyrosine phosphorylation was quantitated following transfer to an avidin coated ELISA plate using peroxidase-linked anti-phospho-tyrosine antibody PY20. In the Alphascreen assay, Alphascreen phosphotyrosine acceptor beads followed by streptavidin donor beads were added under subdued light. The ELISA plates were read on a BMG Fluorostar, the Alphascreen plates were read on a Packard Fusion Alpha. Inhibitors were added to the assays fifteen minutes prior to the addition of ATP. Inhibitors were added in aqueous DMSO, with DMSO concentrations never exceeding 1%.

[2] = biological target: T1, Jak2 (Homo sapiens, UniProt O60674); assay: JAK2 kinase domain assay (ELISA or Alphascreen); conditions: capacity to inhibit 50% of activity at 50 μM; read-out: Jak2 inhibitory activity
T1 construct: The kinase domain of humanJAK2 was amplified from U937mRNA; His tag (from pFastBac HTc vector) (N); made in house; host or cells: baculovirus; Sf9 insect cells for virus, High Five cells for large-scale production
Experimental: as §1
(§3) • JAK1 PCR products were cloned into the pFastBac HTb expression vector (Gibco) via the Xho I and Kpn I sites. The JAK1 plasmid was then transformed into competent DH10Bac cells (Gibco), and the recombinant baculovirus produced prepared for transfection into Sf9 insect cells. JAK2 • The kinase domain of humanJAK2 was amplified from U937mRNA using the polymerase chain reaction with the following primers:
• JAK2 PCR products were cloned into the pFastBac HTc expression vector (Gibco) via the Sal I and Not I sites. The JAK2 plasmid was then transformed into competent DH10Bac cells (Gibco), and the recombinant baculovirus produced prepared for transfection into Sf9 insect cells. JAK3 • The kinase domain of humanJAK3 was amplified from U937mRNA using the polymerase chain reaction with the following primers: […]
(§4) Baculovirus preparations from each of the JAK family members were infected into five litres of High Five cells (Invitrogen) grown in High Five serum free medium (Invitrogen) to a cell density of approximately 1-2×10^6 cells/ml. Cells are infected with virus at a MOI of 0.8-3.0. Cells were harvested and lysed. JAK kinase domains were purified by affinity chromatography on a Probond (Invitrogen) nickel chelate affinity column.
as §2

[3] = biological target: T2, Jak3 (Homo sapiens, UniProt P52333); assay: JAK3 kinase domain assay (ELISA or Alphascreen); conditions: capacity to inhibit 50% of activity at 50 μM; read-out: Jak3 inhibitory activity
T2 construct: The kinase domain of humanJAK3 was amplified from U937mRNA; His tag (from pFastBac HTb vector) (N); made in house; host or cells: baculovirus; Sf9 insect cells for virus, High Five cells for large-scale production
Experimental: as §1
• JAK2 PCR products were cloned into the pFastBac HTc expression vector (Gibco) via the Sal I and Not I sites. The JAK2 plasmid was then transformed into competent DH10Bac cells (Gibco), and the recombinant baculovirus produced prepared for transfection into Sf9 insect cells. JAK3 • The kinase domain of humanJAK3 was amplified from U937mRNA using the polymerase chain reaction with the following primers:
as §3, with “JAK3” for “JAK1”, “TYK2” for “JAK2”, “humanTYK2” for “humanJAK2”, “A549 mRNA” for “U937mRNA”, “primers: […]” for “primers:”
as §4, §2

[4] = biological target: kdr (Homo sapiens, UniProt P35968); assay: kdr kinase assay (ELISA or Alphascreen); conditions: capacity to inhibit 50% of activity at 50 μM; read-out: kdr inhibitory activity
Experimental: as §1, §2

[5] = biological target: T3, abl (Homo sapiens, UniProt P00519); assay: abl kinase assay (ELISA or Alphascreen); conditions: capacity to inhibit 50% of activity at 50 μM; read-out: abl inhibitory activity
T3 sequence (P00519 242-493 limits assumed): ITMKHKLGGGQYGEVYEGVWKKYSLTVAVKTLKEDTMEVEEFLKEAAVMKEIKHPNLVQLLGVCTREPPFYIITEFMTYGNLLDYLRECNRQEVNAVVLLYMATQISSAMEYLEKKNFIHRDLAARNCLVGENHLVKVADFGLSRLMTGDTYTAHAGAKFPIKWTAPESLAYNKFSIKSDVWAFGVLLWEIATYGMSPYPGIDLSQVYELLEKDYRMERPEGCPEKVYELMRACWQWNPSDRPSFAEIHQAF
Experimental: as §1, §2

Sequence of hck (P08631 262-515 limits assumed, species assumed): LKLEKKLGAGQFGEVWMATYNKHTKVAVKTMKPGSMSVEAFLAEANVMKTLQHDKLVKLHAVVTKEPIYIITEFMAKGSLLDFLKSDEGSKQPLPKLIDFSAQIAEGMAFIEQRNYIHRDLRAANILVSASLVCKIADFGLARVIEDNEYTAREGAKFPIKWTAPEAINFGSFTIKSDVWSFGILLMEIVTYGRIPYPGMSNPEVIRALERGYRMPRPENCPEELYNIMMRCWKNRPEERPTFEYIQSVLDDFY
T2 sequence (P52333 822-1111 limits assumed): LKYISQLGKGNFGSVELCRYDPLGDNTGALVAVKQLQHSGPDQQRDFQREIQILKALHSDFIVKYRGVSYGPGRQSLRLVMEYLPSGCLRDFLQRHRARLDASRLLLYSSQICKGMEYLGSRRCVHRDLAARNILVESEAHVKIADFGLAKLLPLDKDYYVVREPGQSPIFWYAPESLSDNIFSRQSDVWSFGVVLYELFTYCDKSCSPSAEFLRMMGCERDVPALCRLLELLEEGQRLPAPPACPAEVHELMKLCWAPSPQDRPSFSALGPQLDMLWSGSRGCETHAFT
Sequence of kdr (P35968 834-1162 limits assumed, species assumed): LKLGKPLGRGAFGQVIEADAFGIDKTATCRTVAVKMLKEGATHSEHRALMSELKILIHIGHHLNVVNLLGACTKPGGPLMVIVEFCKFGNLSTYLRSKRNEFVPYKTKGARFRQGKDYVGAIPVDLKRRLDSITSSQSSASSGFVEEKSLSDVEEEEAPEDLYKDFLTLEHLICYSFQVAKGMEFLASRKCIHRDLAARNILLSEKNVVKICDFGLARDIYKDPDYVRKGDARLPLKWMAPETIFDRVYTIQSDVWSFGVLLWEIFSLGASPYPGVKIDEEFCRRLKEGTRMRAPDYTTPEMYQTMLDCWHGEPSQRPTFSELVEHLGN
T1 sequence (O60674 849-1124 limits assumed): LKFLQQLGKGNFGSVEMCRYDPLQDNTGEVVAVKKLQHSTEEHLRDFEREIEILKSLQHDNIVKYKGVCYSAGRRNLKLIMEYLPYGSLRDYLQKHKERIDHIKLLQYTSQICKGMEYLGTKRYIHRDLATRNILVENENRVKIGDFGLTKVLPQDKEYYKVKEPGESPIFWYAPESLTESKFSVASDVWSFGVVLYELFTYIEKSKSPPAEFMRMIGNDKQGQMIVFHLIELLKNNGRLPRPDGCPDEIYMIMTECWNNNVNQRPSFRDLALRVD

Row | inhibition at 50 µM [1] [%] | inhibition at 50 µM [2] [%] | inhibition at 50 µM [3] [%] | inhibition at 50 µM [4] [%] | inhibition at 50 µM [5] [%] | SMILES
1 | > 50 | > 50 | < 50 | > 50 | > 50 | C[C@H](Nc1cncc(-n2cnc3cc(NS(C)(=O)=O)ccc32)n1)c1ccccc1
2 | > 50 | < 50 | < 50 | > 50 | > 50 | C[C@H](Nc1cncc(-n2cnc3cc(NC(=O)c4ccncc4)ccc32)n1)c1ccccc1
3 | < 50 | > 50 | < 50 | > 50 | > 50 | C[C@H](Nc1cncc(-n2cnc3ccc(NC(=O)c4ccncc4)cc32)n1)c1ccccc1
4 | > 50 | > 50 | < 50 | > 50 | > 50 | CNC(=O)c1ccc2c(c1)ncn2-c1cncc(N[C@@H](C)c2ccccc2)n1
5 | > 50 | > 50 | > 50 | > 50 | > 50 | CNC(=O)c1ccc2ncn(-c3cncc(N[C@@H](C)c4ccccc4)n3)c2c1
6 | > 50 | > 50 | < 50 | > 50 | > 50 | C[C@H](Nc1cncc(-n2cnc3cc(N)ccc32)n1)c1ccccc1
7 | > 50 | < 50 | < 50 | > 50 | > 50 | C[C@H](Nc1cncc(-n2cnc3cc(C(=O)NCc4ccccc4)ccc32)n1)c1ccccc1
8 | > 50 | < 50 | < 50 | < 50 | > 50 | C[C@H](Nc1cncc(-n2cnc3cc(C(=O)Nc4ccccc4)ccc32)n1)c1ccccc1
9 | > 50 | > 50 | < 50 | > 50 | > 50 | C[C@H](Nc1cncc(-n2cnc3ccc(NC(=O)c4cccnc4)cc32)n1)c1ccccc1
10 | > 50 | > 50 | > 50 | > 50 | > 50 | C[C@H](Nc1cncc(-n2cnc3cc(NC(=O)C(C)(C)C)ccc32)n1)c1ccccc1
11 | > 50 | < 50 | < 50 | > 50 | > 50 | COCC(=O)Nc1ccc2c(c1)ncn2-c1cncc(N[C@@H](C)c2ccccc2)n1
12 | > 50 | > 50 | < 50 | > 50 | > 50 | CC(=O)Nc1ccc2ncn(-c3cncc(N[C@@H](C)c4ccccc4)n3)c2c1

Second part, the compound before the results:

Row | SMILES | inhibition at 50 µM [1] [%] | inhibition at 50 µM [2] [%] | inhibition at 50 µM [3] [%] | inhibition at 50 µM [4] [%] | inhibition at 50 µM [5] [%]
13 | Fc1ccc(CNc2cncc(-n3ccnc3)n2)cc1 | > 50 | < 50 | > 50 | < 50 | < 50
14 | C[C@@H](Nc1cncc(-n2ccnc2)n1)c1ccccc1 | > 50 | < 50 | < 50 | < 50 | > 50
15 | COc1ccc([C@H](C)Nc2cncc(-n3cnc4ccccc43)n2)cc1 |  | < 50 | < 50 | > 50 | > 50
16 | C[C@H](Nc1cncc(-n2cnc3ccccc32)n1)c1ccc(Br)cc1 |  | < 50 | < 50 | > 50 | > 50
17 | C[C@H](Nc1cncc(-n2cnc3ccc(NS(C)(=O)=O)cc32)n1)c1ccccc1 | > 50 | > 50 | < 50 | > 50 | > 50
18 | c1ccc2c(c1)ncn2-c1cncc(Nc2ccc(N3CCOCC3)cc2)n1 | > 50 | < 50 | < 50 | > 50 | < 50
19 | Cc1nccn1-c1cncc(NCc2ccc(F)cc2)n1 | > 50 | < 50 | > 50 | < 50 | < 50
20 | C[C@H](Nc1cncc(-n2ccnc2)n1)c1ccccc1 | > 50 | < 50 | < 50 | < 50 | > 50
21 | C[C@H](Nc1cncc(-n2cnc3ccccc32)n1)c1ccccc1 | > 50 | > 50 | < 50 | > 50 | > 50
22 | Cc1nc2ccccc2n1-c1cncc(N[C@@H](C)c2ccccc2)n1 | < 50 | < 50 | < 50 | < 50 | < 50
23 | Cc1ccc2c(c1)ncn2-c1cncc(N[C@@H](C)c2ccccc2)n1 | > 50 | > 50 | < 50 | > 50 | > 50
24 | C[C@H](Nc1cncc(-n2cnc3ccc(C(=O)N4CCN(C)CC4)cc32)n1)c1ccccc1 | > 50 | < 50 | < 50 | < 50 | < 50
25 | C[C@H](Nc1cncc(-n2cnc3cc(C(=O)N4CCN(C)CC4)ccc32)n1)c1ccccc1 | > 50 | < 50 | < 50 | > 50 | > 50
26 | C[C@H](Nc1cncc(-n2cnc3cc(C4=NCCO4)ccc32)n1)c1ccccc1 | > 50 | < 50 | < 50 | > 50 | > 50
27 | C[C@H](Nc1cncc(-n2cnc3ccc(C(=O)NCCO)cc32)n1)c1ccccc1 | > 50 | > 50 | > 50 | > 50 | > 50
28 | C[C@H](Nc1cncc(-n2cnc3ccc(N)cc32)n1)c1ccccc1 | > 50 | > 50 | < 50 | > 50 | > 50
29 | C[C@H](Nc1cncc(-n2cnc3ccc(NC(=O)C(C)(C)C)cc32)n1)c1ccccc1 | > 50 | > 50 | > 50 | > 50 | > 50
30 | COCC(=O)Nc1ccc2ncn(-c3cncc(N[C@@H](C)c4ccccc4)n3)c2c1 | > 50 | > 50 | < 50 | > 50 | > 50
